# Laboratory results reported in ChEMBL document CHEMBL1201862, “PubChem BioAssay data set” (2004).
# The source made the active and inactive calls.
# What was measured:
# HeLa = experiment: Cytotoxicity counterscreen assay for transcriptional activators of heat shock protein 70 (Hsp70). [Related pubchem assays: 1203, 1252 ]; assay type: functional; settings: Homo sapiens;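 also: cells exposed to compound for 16 hours before readout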
# BJ [1] = experiment: cytotoxicity toward BJ-TERT-LT-ST fibroblasts, dose response, cell-based, RAS-independent, luminescence (AID 1935); assay type: functional; settings: Homo sapiens;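 also: BJ fibroblasts immortalized with TERT plus LT and ST oncogenes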
# BJ [2] = experiment: cytotoxicity toward BJ-TERT fibroblasts, dose response, cell-based, RAS-independent, luminescence (AID 1933); assay type: functional; settings: Homo sapiens
# [3] = cytotoxicity toward DRD oncogenic fibroblasts, dose response, cell-based, non-viral oncogenic, luminescence (AID 1934); assay type: functional; settings: Homo sapiens
# BJ [4] = experiment: cells; assay type: functional, cell-based; settings: Homo sapiens
# [5] = target: Epstein-Barr nuclear antigen 1 (Epstein-Barr virus (strain B95-8) (HHV-4) (Human herpesvirus 4), UniProt P03211); experiment: EBNA-1 inhibitors, dose response, biochemical, fluorescence polarization, 1536-well (AID 2381); set-up: species or system human gammaherpesvirus 4;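 also: fluorescence polarization of a Cy5 DNA probe bound by EBNA-1 protein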
# Epstein-Barr nuclear antigen 1, sequence (P03211 whole entry): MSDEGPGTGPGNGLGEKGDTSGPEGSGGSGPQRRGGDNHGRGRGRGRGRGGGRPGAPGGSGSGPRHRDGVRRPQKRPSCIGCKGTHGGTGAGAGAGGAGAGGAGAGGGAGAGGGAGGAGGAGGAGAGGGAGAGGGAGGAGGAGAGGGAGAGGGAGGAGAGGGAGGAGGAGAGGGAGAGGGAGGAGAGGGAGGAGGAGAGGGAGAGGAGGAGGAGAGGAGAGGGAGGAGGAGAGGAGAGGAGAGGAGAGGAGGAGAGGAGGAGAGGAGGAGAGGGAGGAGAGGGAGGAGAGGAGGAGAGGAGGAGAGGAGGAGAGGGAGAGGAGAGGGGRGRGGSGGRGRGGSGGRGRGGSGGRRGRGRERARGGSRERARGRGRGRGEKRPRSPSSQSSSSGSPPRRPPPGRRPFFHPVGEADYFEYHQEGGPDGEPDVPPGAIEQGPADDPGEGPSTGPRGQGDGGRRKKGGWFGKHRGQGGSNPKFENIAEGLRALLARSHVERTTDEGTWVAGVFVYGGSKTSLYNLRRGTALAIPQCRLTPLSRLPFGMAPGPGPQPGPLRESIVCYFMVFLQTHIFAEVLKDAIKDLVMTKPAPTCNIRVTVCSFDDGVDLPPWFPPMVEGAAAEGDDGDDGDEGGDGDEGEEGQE
# [6] = target: Lytic switch protein BZLF1 (Epstein-Barr virus (strain B95-8) (HHV-4) (Human herpesvirus 4), UniProt P03206); experiment: EBV ZTA inhibitors, dose response, counter-screen for EBNA-1 inhibitor project, biochemical, fluorescence polarization, Epstein-Barr virus, 1536-well (AID 2377); set-up: species or system human gammaherpesvirus 4;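 also: fluorescence polarization of Cy5-labelled ZRE DNA probe bound by purified Zta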
# Lytic switch protein BZLF1, sequence (P03206 whole entry): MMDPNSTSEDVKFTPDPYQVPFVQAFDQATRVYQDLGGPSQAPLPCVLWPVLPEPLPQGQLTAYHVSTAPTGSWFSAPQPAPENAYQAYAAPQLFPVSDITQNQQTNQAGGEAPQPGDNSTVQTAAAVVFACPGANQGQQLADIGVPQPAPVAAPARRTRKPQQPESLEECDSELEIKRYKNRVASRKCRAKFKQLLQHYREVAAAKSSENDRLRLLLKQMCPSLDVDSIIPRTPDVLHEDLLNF
# [7] = enhancers of respiration in Yfh1-depleted yeast, dose response, Friedreich's ataxia, plus single-dose screen (AID 1465); assay type: functional;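 also: yeast depleted of Yfh1p frataxin homolog grown on glycerol needing respiration; WST-1 tetrazolium dye reduction as measure of cellular dehydrogenase metabolic activity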
# [8] = Luminescence Cell-Based Dose Retest to Confirm Inhibitors of Cancer Stem Cells. [Related pubchem assays (depositor defined):AID2717, AID2721]; assay type: functional; settings: Homo sapiens
# Nonstructural protein 1 = Nonstructural protein 1 (Influenza A virus, UniProt Q194T2); assay type: functional, Influenza A virus (A/California/07/2009(H1N1))
# Nonstructural protein 1, sequence (Q194T2 whole entry): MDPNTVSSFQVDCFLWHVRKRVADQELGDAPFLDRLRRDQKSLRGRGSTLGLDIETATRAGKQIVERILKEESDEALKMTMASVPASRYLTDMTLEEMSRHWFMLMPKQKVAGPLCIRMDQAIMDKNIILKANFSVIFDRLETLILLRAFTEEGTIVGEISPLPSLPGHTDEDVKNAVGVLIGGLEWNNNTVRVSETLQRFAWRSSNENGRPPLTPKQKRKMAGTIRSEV
# 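For AC50 in this document: cells exposed to compound for roughly 70 hours or longer before luminescence read.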
smiles,measurement,setting,value
COc1ccc(/C=C/C(=O)c2cc(F)ccc2OC(=O)c2ccccc2OC)cc1OC,CC50,HeLa,14.6 µM (not active)
same,EC50,BJ [1],1.41 µM (active)
same,EC50,BJ [2],1.14 µM (inconclusive)
same,EC50,[3],2.56 µM (active)
same,EC50,BJ [4],2.76 µM (active)
NS(=O)(=O)c1ccc(NC(=S)NC(=O)c2ccc3c(c2)OCO3)cc1,IC50,[5],19.5 µM (not active)
same,IC50,[6],33.3 µM (not active)
CC(=O)NC(c1ccccc1)c1cc([N+](=O)[O-])c2cccnc2c1O (configuration not stated),EC50,[7],> 100 µM (active)
same,AC50,[8],1.69 µM (active)
same,IC50,Nonstructural protein 1,5.52 µM (active)
COc1ccccc1CNC(=O)C1CCN(S(=O)(=O)c2cccc3nonc23)CC1,IC50,cells,3.4 µM (active)
CC1C/C(=C/c2ccccn2)C(=O)/C(=C/c2ccccn2)C1 (configuration not stated),CC50,HeLa,> 1.22 µM (not active)
